Results from ChEMBL document CHEMBL1154227, “Guttiferones O and P, prenylated benzophenone MAPKAPK-2 inhibitors from Garcinia solomonensis” (J Nat Prod, 2009).

Target: MAP kinase-activated protein kinase 2 (Homo sapiens, UniProt P49137)
Assay: Inhibition of GST-tagged MAPKAPK2 assessed as [33P] incorporation after 40 mins by scintillation proximity assay

Chain of MAP kinase-activated protein kinase 2 (P49137 whole entry): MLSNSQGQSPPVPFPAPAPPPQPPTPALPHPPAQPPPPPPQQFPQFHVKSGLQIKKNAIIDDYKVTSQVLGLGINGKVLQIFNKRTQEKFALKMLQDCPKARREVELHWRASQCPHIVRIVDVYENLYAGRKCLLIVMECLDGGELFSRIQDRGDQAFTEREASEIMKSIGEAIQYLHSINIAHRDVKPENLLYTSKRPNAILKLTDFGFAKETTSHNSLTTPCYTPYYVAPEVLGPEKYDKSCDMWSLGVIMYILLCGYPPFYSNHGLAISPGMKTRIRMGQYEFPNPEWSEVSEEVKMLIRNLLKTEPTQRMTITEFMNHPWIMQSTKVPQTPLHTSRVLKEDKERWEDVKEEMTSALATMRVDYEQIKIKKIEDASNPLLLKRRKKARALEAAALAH

Compound	IC50 [µM]
CC(C)=CCC/C(C)=C/C[C@]12C[C@@H](CC=C(C)C)[C@](C)(CCC=C(C)C)[C@](CC=C(C)C)(C(=O)C(C(=O)c3ccc(O)c(O)c3)=C1O)C2=O [GUTTIFERONE P]	22
CC(C)=CCC/C(C)=C/C[C@]12C[C@@H](CC=C(C)C)C(C)(C)[C@](C/C=C(\C)CCC=C(C)C)(C(=O)C(C(=O)c3ccc(O)c(O)c3)=C1O)C2=O [GUTTIFERONE O]	22
